Assay results: EP0465716A1, “Optically active thiazetoquino-line-3-carboxylic acid compound, method for preparation thereof, and a pharmaceutical composition comprising the same” (priority 1990, dated 1992)
Converted amounts (≈) assume the structure as drawn.

Assays:
Enterobacter cloacae 963 = assay: MIC, twofold agar dilution method (standard laboratory strain); format: cell-based; conditions: Enterobacter cloacae 963, Gram -; 10^6 cfu/ml; 18 hrs at 37 °C
Method: (§1) Overnight cultures in Mueller-Hinton broth were suspended by buffered saline gelatin. One loopful of the bacterial suspension (10⁶ or 10⁸ colony-forming units/ml) was incubated onto the plates containing test compounds. The plates were incubated for 18 hrs at 37 °C. The MIC was defined by the lowest concentration of the drug that inhibited visible growth of bacteria.

[1] = test system: Escherichia coli NIHJ JC-2; assay: as above; format: cell-based; conditions: NIHJJC2; Escherichia coli NIHJ JC-2, Gram -; 10^6 cfu/ml; 18 hrs at 37 °C
Method: as §1

[2] = test system: Pseudomonas aeruginosa IFO 3445; assay: as above; format: cell-based; conditions: IFO3445; Pseudomonas aeruginosa IFO 3445, Gram -; 10^6 cfu/ml; 18 hrs at 37 °C
Method: as §1

[3] = test system: Serratia marcescens IAM 1184; assay: as above; format: cell-based; conditions: IAM1184; Serratia marcescens IAM 1184, Gram -; 10^6 cfu/ml; 18 hrs at 37 °C
Method: as §1

[4] = test system: Staphylococuss aureus FDA 209PJC-1; assay: as above; format: cell-based; conditions: Staphylococuss aureus FDA 209PJC-1, Gram +; 10^6 cfu/ml; 18 hrs at 37 °C
Method: as §1

[5] = test system: Klebsiella pneumoniae PCI-602; assay: as above; format: cell-based; conditions: PCI602; Klebsiella pneumoniae PCI-602, Gram -; 10^6 cfu/ml; 18 hrs at 37 °C; read-out: MIC
Method: as §1, with “Minimum inhibitory concentrations (MIC) of test compounds were determined by the twofold agar dilution method (Chemotherapy, 29(1), 76(1981)). Overnight” for “Overnight”

[6] = test system: Acinetobacter calcoaceticus HNR 904; assay: MIC, twofold agar dilution method (clinically isolated strain); format: cell-based; conditions: HNR904; Acinetobacter calcoaceticus HNR 904, Gram -; 10^6 cfu/ml; 18 hrs at 37 °C
Method: as §1

[7] = test system: Acinetobacter calcoaceticus HNR 916; assay: as above; format: cell-based; conditions: HNR916; Acinetobacter calcoaceticus HNR 916, Gram -; 10^6 cfu/ml; 18 hrs at 37 °C
Method: as §1

[8] = test system: Acinetobacter calcoaceticus HNR 939; assay: as above; format: cell-based; conditions: HNR939; Acinetobacter calcoaceticus HNR 939, Gram -; 10^6 cfu/ml; 18 hrs at 37 °C
Method: as §1

[9] = test system: Enterobacter cloacae HNR 1939; assay: as above; format: cell-based; conditions: HNR1939; Enterobacter cloacae HNR 1939, Gram -; 10^6 cfu/ml; 18 hrs at 37 °C
Method: as §1

[10] = test system: Enterobacter cloacae HNR 1941; assay: as above; format: cell-based; conditions: HNR1941; Enterobacter cloacae HNR 1941, Gram -; 10^6 cfu/ml; 18 hrs at 37 °C
Method: as §1

[11] = test system: Enterobacter cloacae HNR 1946; assay: as above; format: cell-based; conditions: HNR1946; Enterobacter cloacae HNR 1946, Gram -; 10^6 cfu/ml; 18 hrs at 37 °C
Method: as §1

[12] = test system: Enterococcus faecalis HPC 948; assay: as above; format: cell-based; conditions: HPC948; Enterococcus faecalis HPC 948, Gram +; 10^6 cfu/ml; 18 hrs at 37 °C
Method: as §1

[13] = test system: Enterococcus faecalis HPC 975; assay: as above; format: cell-based; conditions: HPC975; Enterococcus faecalis HPC 975, Gram +; 10^6 cfu/ml; 18 hrs at 37 °C
Method: as §1

[14] = test system: Enterococcus faecalis HPC 984; assay: as above; format: cell-based; conditions: HPC984; Enterococcus faecalis HPC 984, Gram +; 10^6 cfu/ml; 18 hrs at 37 °C
Method: as §1

[15] = test system: Klebsiella pneumoniae HNR 828; assay: as above; format: cell-based; conditions: HNR828; Klebsiella pneumoniae HNR 828, Gram -; 10^6 cfu/ml; 18 hrs at 37 °C
Method: as §1

[16] = test system: Klebsiella pneumoniae HNR 858; assay: as above; format: cell-based; conditions: HNR858; Klebsiella pneumoniae HNR 858, Gram -; 10^6 cfu/ml; 18 hrs at 37 °C
Method: as §1

[17] = test system: Klebsiella pneumoniae HNR 869; assay: as above; format: cell-based; conditions: HNR869; Klebsiella pneumoniae HNR 869, Gram -; 10^6 cfu/ml; 18 hrs at 37 °C
Method: as §1

[18] = test system: Pseudomonas aeruginosa HNR 1472; assay: as above; format: cell-based; conditions: HNR1472; Pseudomonas aeruginosa HNR 1472, Gram -; 10^6 cfu/ml; 18 hrs at 37 °C
Method: as §1

[19] = test system: Pseudomonas aeruginosa HNR 1489; assay: as above; format: cell-based; conditions: HNR1489; Pseudomonas aeruginosa HNR 1489, Gram -; 10^6 cfu/ml; 18 hrs at 37 °C
Method: as §1

[20] = test system: Pseudomonas aeruginosa HNR 1537; assay: as above; format: cell-based; conditions: HNR1537; Pseudomonas aeruginosa HNR 1537, Gram -; 10^6 cfu/ml; 18 hrs at 37 °C
Method: as §1

[21] = test system: Serratia marcescens HNR 1544; assay: as above; format: cell-based; conditions: HNR1544; Serratia marcescens HNR 1544, Gram -; 10^6 cfu/ml; 18 hrs at 37 °C
Method: as §1

[22] = test system: Serratia marcescens HNR 1767; assay: as above; format: cell-based; conditions: HNR1767; Serratia marcescens HNR 1767, Gram -; 10^6 cfu/ml; 18 hrs at 37 °C
Method: as §1

[23] = test system: Serratia marcescens HNR 1792; assay: as above; format: cell-based; conditions: HNR1792; Serratia marcescens HNR 1792, Gram -; 10^6 cfu/ml; 18 hrs at 37 °C
Method: as §1

[24] = test system: Staphylococcuss aureus HPC 292; assay: as above; format: cell-based; conditions: Staphylococcuss aureus HPC 292, Gram +; 10^6 cfu/ml; 18 hrs at 37 °C
Method: as §1

[25] = test system: Staphylococcuss aureus HPC 308; assay: as above; format: cell-based; conditions: Staphylococcuss aureus HPC 308, Gram +; 10^6 cfu/ml; 18 hrs at 37 °C
Method: as §1

[26] = test system: Staphylococcuss aureus HPC 527; assay: as above; format: cell-based; conditions: Staphylococcuss aureus HPC 527, Gram +; 10^6 cfu/ml; 18 hrs at 37 °C
Method: as §1

Male mice of ddY strain = assay: Convulsion inducing activity in combination with fenbufen; conditions: thirty minutes after fenbufen 100 mg/kg orally
Method: Male mice of ddY strain, 5 weeks old, were used. Fenbufen suspended in 0.5 % carboxymethylcellulose was administered orally at a dose of 100 mg/kg. After thirty minutes, test compounds suspended in 0.5 % carboxymethylcellulose were injected intraperitoneally (i.p.) at a dose of 100 mg/kg or 300 mg/kg.

Row | SMILES | MIC (Enterobacter cloacae 963) [µg/mL] | MIC [1] [µg/mL] | MIC [2] [µg/mL] | MIC [3] [µg/mL] | MIC [4] [µg/mL] | MIC [5] [µg/mL] | MIC [6] [µg/mL] | MIC [7] [µg/mL] | MIC [8] [µg/mL] | MIC [9] [µg/mL] | MIC [10] [µg/mL] | MIC [11] [µg/mL] | MIC [12] [µg/mL] | MIC [13] [µg/mL] | MIC [14] [µg/mL] | MIC [15] [µg/mL] | MIC [16] [µg/mL] | MIC [17] [µg/mL] | MIC [18] [µg/mL] | MIC [19] [µg/mL] | other results
1 | CC1Sc2c(C(=O)O)c(=O)c3cc(F)c(N4CC[C@H](N)C4)c(Cl)c3n21 (single isomer, unassigned) [Example 15] | 0.012 (≈ 0.0313 µM) | 0.012 (≈ 0.0313 µM) | 0.05 (≈ 0.13 µM) | 0.025 (≈ 0.0651 µM) | 0.025 (≈ 0.0651 µM) | 0.006 (≈ 0.0156 µM) | 6.25 (≈ 16.3 µM) | 0.05 (≈ 0.13 µM) | 0.78 (≈ 2.03 µM) | 0.1 (≈ 0.261 µM) | 0.78 (≈ 2.03 µM) | 0.1 (≈ 0.261 µM) | 0.39 (≈ 1.02 µM) | 1.56 (≈ 4.06 µM) | 0.1 (≈ 0.261 µM) | 0.78 (≈ 2.03 µM) | 0.1 (≈ 0.261 µM) | 0.2 (≈ 0.521 µM) | 1.56 (≈ 4.06 µM) | 0.1 (≈ 0.261 µM) | MIC [20]: 1.56 µg/mL (≈ 4.06 µM); MIC [21]: 0.025 µg/mL (≈ 0.0651 µM); MIC [22]: 1.56 µg/mL (≈ 4.06 µM); MIC [23]: 0.39 µg/mL (≈ 1.02 µM); MIC [24]: 1.56 µg/mL (≈ 4.06 µM); MIC [25]: 0.39 µg/mL (≈ 1.02 µM); MIC [26]: 0.025 µg/mL (≈ 0.0651 µM); Number of convulsion induced / Number of animals (Male mice of ddY strain; 100 mg/kg (i.p.)): 0 / 6; Number of convulsion induced / Number of animals (Male mice of ddY strain; 300 mg/kg (i.p.)): 0 / 6
2 | CC1Sc2c(C(=O)O)c(=O)c3cc(F)c(N4CC[C@@H](N)C4)c(Cl)c3n21 (single isomer, unassigned) [Example 17] | 0.05 (≈ 0.13 µM) | 0.025 (≈ 0.0651 µM) | 0.1 (≈ 0.261 µM) | 0.05 (≈ 0.13 µM) | 0.025 (≈ 0.0651 µM) | 0.025 (≈ 0.0651 µM) | 12.5 (≈ 32.6 µM) | 0.1 (≈ 0.261 µM) | 0.78 (≈ 2.03 µM) | 0.1 (≈ 0.261 µM) | 1.56 (≈ 4.06 µM) | 0.2 (≈ 0.521 µM) | 0.39 (≈ 1.02 µM) | 1.56 (≈ 4.06 µM) | 0.1 (≈ 0.261 µM) | 1.56 (≈ 4.06 µM) | 0.2 (≈ 0.521 µM) | 0.78 (≈ 2.03 µM) | 3.13 (≈ 8.15 µM) | 0.2 (≈ 0.521 µM) | MIC [20]: 6.25 µg/mL (≈ 16.3 µM); MIC [21]: 0.05 µg/mL (≈ 0.13 µM); MIC [22]: 6.25 µg/mL (≈ 16.3 µM); MIC [23]: 1.56 µg/mL (≈ 4.06 µM); MIC [24]: 1.56 µg/mL (≈ 4.06 µM); MIC [25]: 0.78 µg/mL (≈ 2.03 µM); MIC [26]: 0.05 µg/mL (≈ 0.13 µM)
3 | CC1Sc2c(C(=O)O)c(=O)c3cc(F)c(N4CC[C@H](N)C4)c(F)c3n21 (single isomer, unassigned) [Example 18] | 0.006 (≈ 0.0163 µM) | 0.006 (≈ 0.0163 µM) | 0.025 (≈ 0.068 µM) | 0.012 (≈ 0.0327 µM) | 0.006 (≈ 0.0163 µM) | ≤ 0.0015 | 3.13 (≈ 8.52 µM) | 0.025 (≈ 0.068 µM) | 0.78 (≈ 2.12 µM) | 0.05 (≈ 0.136 µM) | 1.56 (≈ 4.25 µM) | 0.1 (≈ 0.272 µM) | 0.39 (≈ 1.06 µM) | 1.56 (≈ 4.25 µM) | 0.05 (≈ 0.136 µM) | 0.78 (≈ 2.12 µM) | 0.05 (≈ 0.136 µM) | 0.39 (≈ 1.06 µM) | 1.56 (≈ 4.25 µM) | 0.05 (≈ 0.136 µM) | MIC [20]: 3.13 µg/mL (≈ 8.52 µM); MIC [21]: 0.012 µg/mL (≈ 0.0327 µM); MIC [22]: 3.13 µg/mL (≈ 8.52 µM); MIC [23]: 0.78 µg/mL (≈ 2.12 µM); MIC [24]: 0.78 µg/mL (≈ 2.12 µM); MIC [25]: 0.39 µg/mL (≈ 1.06 µM); MIC [26]: 0.012 µg/mL (≈ 0.0327 µM); Number of convulsion induced / Number of animals (Male mice of ddY strain; 100 mg/kg (i.p.)): 0 / 6; Number of convulsion induced / Number of animals (Male mice of ddY strain; 300 mg/kg (i.p.)): 0 / 6
